Structures are written as SMILES.

What is called IC50 is the concentration needed to halve the response being measured.

The subject of the assay is HIV. Description: MT4 assay (anti-HIV activity). The class given is cell-based. Particulars: Human immunodeficiency virus 1, 96 h, antiviral HIV activity in HTLV-1 transformed cell line MT-4; luciferase read 96 hours later; 10 point dose response. On the procedure:
Antiviral HIV activity and cytotoxicity values for compounds of the invention from Table 1 were measured in parallel in the HTLV-1 transformed cell line MT-4 based on the method previously described (Hazen et al., 2007, In vitro antiviral activity of the novel, tyrosyl-based human immunodeficiency virus (HIV) type 1 protease inhibitor brecanavir (GW640385) in combination with other antiretrovirals and against a panel of protease inhibitor-resistant HIV (Hazen et al., “In vitro antiviral activity of the novel, tyrosyl-based human immunodeficiency virus (HIV) type 1 protease inhibitor brecanavir (GW640385) in combination with other antiretrovirals and against a panel of protease inhibitor-resistant HIV”, Antimicrob. Agents Chemother. 2007, 51: 3147-3154; and Pauwels et al., “Sensitive and rapid assay on MT-4 cells for the detection of antiviral compounds against the AIDS virus”, J. of Virological Methods 1987, 16: 171-185).
Luciferase activity was measured 96 hours later by adding a cell titer glo (Promega, Madison, Wis.). Percent inhibition of cell protection data was plotted relative to no compound control. Under the same condition, cytotoxicity of the compounds was determined using cell titer Glo™ (Promega, Madison, Wis.). IC50s were determined from a 10 point dose response curve using 3-4-fold serial dilution for each compound, which spans a concentration range >1000 fold.
These values are plotted against the molar compound concentrations using the standard four parameter logistic equation:
y=((Vmax*x̂n)/(K̂n+x̂n))+Y2
Y2=minimum y n=slope factor
Vmax=maximum y x=compound concentration [M]
For `Cc1ccc(-c2c(C)c3c(c(C)c2C(OC(C)(C)C)C(=O)O)CCN(C(=O)c2cccc(F)c2)C3)cc1` (stereo not drawn) [Example 22, 2-(tert-Butoxy)-2-(2-(3-fluorobenzoyl)-5,8-dimethyl-7-(p-tolyl)-1,2,3,4-tetrahydroisoquinolin-6-yl)acetic Acid], the IC50 was 329 nM.

As for `Cc1ccc(-c2c(C)c3c(c(C)c2C(OC(C)(C)C)C(=O)O)CCN(C(=O)N2CCCCC2)C3)cc1` (stereo not drawn) [Example 23, 2-(tert-Butoxy)-2-(5,8-dimethyl-2-(piperidine-1-carbonyl)-7-(p-tolyl)-1,2,3,4-tetrahydroisoquinolin-6-yl)acetic Acid], the IC50 came to 108 nM.

Regarding `Cc1ccc(-c2c(C)c3c(c(C)c2[C@H](OC(C)(C)C)C(=O)O)CCN(C(=O)C(C)(C)C)C3)cc1` [Example 24, (S)-2-(tert-Butoxy)-2-(5,8-dimethyl-2-pivaloyl-7-(p-tolyl)-1,2,3,4-tetrahydroisoquinolin-6-yl)acetic Acid], the IC50 came to 87 nM.

For `Cc1ccc(-c2c(C)c3c(c(C)c2[C@H](OC(C)(C)C)C(=O)O)CCN(C(=O)CC(C)(C)C)C3)cc1` [Example 25, (S)-2-(tert-Butoxy)-2-(2-(3,3-dimethylbutanoyl)-5,8-dimethyl-7-(p-tolyl)-1,2,3,4-tetrahydroisoquinolin-6-yl)acetic Acid], the IC50 was 95 nM.

Turning to `COc1c(F)cccc1C(=O)N1CCc2c(C)c([C@H](OC(C)(C)C)C(=O)O)c(-c3ccc(C)cc3)c(C)c2C1` [Example 26, (S)-2-(tert-Butoxy)-2-(2-(3-fluoro-2-methoxybenzoyl)-5,8-dimethyl-7-(p-tolyl)-1,2,3,4-tetrahydroisoquinolin-6-yl)acetic Acid], the half-inhibitory concentration (IC50) turned out to be 61 nM.

As to `Cc1ccc(-c2c(C)c3c(c(C)c2[C@H](OC(C)(C)C)C(=O)O)CCN(C(=O)OC(C)(C)C)C3)cc1` [Example 27, (S)-2-(tert-Butoxy)-2-(2-(tert-butoxycarbonyl)-5,8-dimethyl-7-(p-tolyl)-1,2,3,4-tetrahydroisoquinolin-6-yl)acetic Acid], the IC50 came to 114 nM.

In the case of `Cc1ccc(-c2c(C)c3c(c(C)c2[C@H](OC(C)(C)C)C(=O)O)CCN(C2CCOCC2)C3)cc1` [Example 28, (S)-2-(tert-Butoxy)-2-(5,8-dimethyl-2-(tetrahydro-2H-pyran-4-yl)-7-(p-tolyl)-1,2,3,4-tetrahydroisoquinolin-6-yl)acetic Acid], the IC50 was determined as 378 nM.

Consider `Cc1ccc(-c2c(C)c3c(c(C)c2[C@H](OC(C)(C)C)C(=O)O)CCN(C2CCCCC2)C3)cc1` [Example 29, (S)-2-(tert-Butoxy)-2-(2-cyclohexyl-5,8-dimethyl-7-(p-tolyl)-1,2,3,4-tetrahydroisoquinolin-6-yl)acetic Acid], for which the IC50 is 13 nM.

`Cc1ccc(-c2c(C)c3c(c(C)c2[C@H](OC(C)(C)C)C(=O)O)CCN(Cc2cccc(F)c2)C3)cc1` [Example 30, (S)-2-(tert-Butoxy)-2-(2-(3-fluorobenzyl)-5,8-dimethyl-7-(p-tolyl)-1,2,3,4-tetrahydroisoquinolin-6-yl)acetic Acid]: the IC50 is 382 nM.

As to `Cc1ccc(-c2c(C)c3c(c(C)c2[C@H](OC(C)(C)C)C(=O)O)CCN(CC2CCCCC2)C3)cc1` [Example 31, (S)-2-(tert-Butoxy)-2-(2-(cyclohexylmethyl)-5,8-dimethyl-7-(p-tolyl)-1,2,3,4-tetrahydroisoquinolin-6-yl)acetic Acid], the IC50 was 50 nM.

As to `Cc1ccc(-c2c(C)c3c(c(C)c2[C@H](OC(C)(C)C)C(=O)O)CCN(C2CCCC2)C3)cc1` [Example 32, (S)-2-(tert-Butoxy)-2-(2-cyclopentyl-5,8-dimethyl-7-(p-tolyl)-1,2,3,4-tetrahydroisoquinolin-6-yl)acetic Acid], the IC50 amounted to 96 nM.

Regarding `Cc1ccc(-c2c(C)c3c(c(C)c2[C@H](OC(C)(C)C)C(=O)O)CCN(CC(C)(C)C)C3)cc1` [Example 33, (S)-2-(tert-Butoxy)-2-(5,8-dimethyl-2-neopentyl-7-(p-tolyl)-1,2,3,4-tetrahydroisoquinolin-6-yl)acetic Acid], the IC50 stood at 37 nM.

Regarding `Cc1ccc(-c2c(C)c3c(c(C)c2[C@H](OC(C)(C)C)C(=O)O)CCN(CCc2ccccc2)C3)cc1` [Example 34, (S)-2-(tert-Butoxy)-2-(5,8-dimethyl-2-phenethyl-7-(p-tolyl)-1,2,3,4-tetrahydroisoquinolin-6-yl)acetic Acid], the IC50 worked out at 165 nM.

Regarding `Cc1ccc(-c2c(C)c3c(c(C)c2[C@H](OC(C)(C)C)C(=O)O)CCN(C(=O)NC2CCCCC2)C3)cc1` [Example 35, (S)-2-(tert-Butoxy)-2-(2-(cyclohexylcarbamoyl)-5,8-dimethyl-7-(p-tolyl)-1,2,3,4-tetrahydroisoquinolin-6-yl)acetic Acid], the IC50 was determined as 360 nM.

Consider `Cc1ccc(-c2c(C)c3c(c(C)c2[C@H](OC(C)(C)C)C(=O)O)CCN(c2ccccc2)C3)cc1` [Example 36, (S)-2-(tert-Butoxy)-2-(5,8-dimethyl-2-phenyl-7-(p-tolyl)-1,2,3,4-tetrahydroisoquinolin-6-yl)acetic Acid], for which the IC50 is 148 nM.

As to `Cc1ccc(-c2c(C)c3c(c(C)c2[C@H](OC(C)(C)C)C(=O)O)CN(C(=O)CC2CCCCC2)CC3)cc1` [Example 37, (S)-2-(tert-butoxy)-2-(2-(2-cyclohexylacetyl)-5,8-dimethyl-6-(p-tolyl)-1,2,3,4-tetrahydroisoquinolin-7-yl)acetic Acid], the IC50 was 118 nM.

As to `Cc1ccc(-c2c(C)c3c(c(C)c2[C@H](OC(C)(C)C)C(=O)O)CCN(S(=O)(=O)N2CCCCC2)C3)cc1` [Example 38, (S)-2-(tert-butoxy)-2-(5,8-dimethyl-2-(piperidin-1-ylsulfonyl)-7-(p-tolyl)-1,2,3,4-tetrahydroisoquinolin-6-yl)acetic Acid], the IC50 was 23 nM.

Take `Cc1ccc(-c2c(C)c3c(c(C)c2[C@H](OC(C)(C)C)C(=O)O)CCN(CCC2CCCCC2)C3)cc1` [Example 39, (S)-2-(tert-butoxy)-2-(2-(2-cyclohexylethyl)-5,8-dimethyl-7-(p-tolyl)-1,2,3,4-tetrahydroisoquinolin-6-yl)acetic Acid]: the IC50 amounted to 225 nM.

Turning to `Cc1ccc(-c2c(C)c3c(c(C)c2[C@H](OC(C)(C)C)C(=O)O)CCN(C2CCC(C)(C)CC2)C3)cc1` [Example 40, (S)-2-(tert-butoxy)-2-(2-(4,4-dimethylcyclohexyl)-5,8-dimethyl-7-(p-tolyl)-1,2,3,4-tetrahydroisoquinolin-6-yl)acetic Acid], the IC50 turned out to be 11 nM.

As for `Cc1ccc(-c2c(C)c3c(c(C)c2[C@H](OC(C)(C)C)C(=O)O)CCN(S(=O)(=O)c2ccccc2)C3)cc1` [Example 41, (S)-2-(tert-butoxy)-2-(5,8-dimethyl-2-(phenylsulfonyl)-7-(p-tolyl)-1,2,3,4-tetrahydroisoquinolin-6-yl)acetic Acid], the IC50 came out at 138 nM.

For `Cc1ccc(-c2c(C)c3c(c(C)c2[C@H](OC(C)(C)C)C(=O)O)CCN(C(=O)c2ccccn2)C3)cc1` [Example 42, (S)-2-(tert-butoxy)-2-(5,8-dimethyl-2-picolinoyl-7-(p-tolyl)-1,2,3,4-tetrahydroisoquinolin-6-yl)acetic Acid], the IC50 was 1140 nM.

For the compound `Cc1ccc(-c2c(C)c3c(c(C)c2[C@H](OC(C)(C)C)C(=O)O)CCN(C(=O)c2cccnc2)C3)cc1` [Example 43, (S)-2-(tert-butoxy)-2-(5,8-dimethyl-2-nicotinoyl-7-(p-tolyl)-1,2,3,4-tetrahydroisoquinolin-6-yl)acetic Acid], the IC50 was 635 nM.

In the case of `Cc1ccc(-c2c(C)c3c(c(C)c2[C@H](OC(C)(C)C)C(=O)O)CCN(C(=O)c2ccncc2)C3)cc1` [Example 44, (S)-2-(tert-butoxy)-2-(2-isonicotinoyl-5,8-dimethyl-7-(p-tolyl)-1,2,3,4-tetrahydroisoquinolin-6-yl)acetic Acid], the IC50 was 1010 nM.

In the case of `Cc1ccc(-c2c(C)c3c(c(C)c2[C@H](OC(C)(C)C)C(=O)O)CCN(S(=O)(=O)C2CCCCC2)C3)cc1` [Example 45, (S)-2-(tert-butoxy)-2-(2-(cyclohexylsulfonyl)-5,8-dimethyl-7-(p-tolyl)-1,2,3,4-tetrahydroisoquinolin-6-yl)acetic Acid], the IC50 came out at 17 nM.

Regarding `Cc1ccc(-c2c(C)c3c(c(C)c2[C@H](OC(C)(C)C)C(=O)O)CCN(C(=O)C(=O)N2CCCCC2)C3)cc1` [Example 46, (S)-2-(tert-butoxy)-2-(5,8-dimethyl-2-(2-oxo-2-(piperidin-1-yl)acetyl)-7-(p-tolyl)-1,2,3,4-tetrahydroisoquinolin-6-yl)acetic Acid], the IC50 worked out at 276 nM.

For `Cc1ccc(-c2c(C)c3c(c(C)c2[C@H](OC(C)(C)C)C(=O)O)CCN(C(=O)C2CCCCC2)C3)cc1` [Example 47, (S)-2-(tert-butoxy)-2-(2-(cyclohexanecarbonyl)-5,8-dimethyl-7-(p-tolyl)-1,2,3,4-tetrahydroisoquinolin-6-yl)acetic Acid], the IC50 was 51 nM.

`Cc1ccc(-c2c(C)c3c(c(C)c2[C@H](OC(C)(C)C)C(=O)O)CCN(C(=O)c2ccccc2)C3)cc1` [Example 48, (S)-2-(2-benzoyl-5,8-dimethyl-7-(p-tolyl)-1,2,3,4-tetrahydroisoquinolin-6-yl)-2-(tert-butoxy)acetic Acid]: the half-inhibitory concentration (IC50) stood at 325 nM.
